Active and inactive are the calls of the source. The rule behind the calls is not given here.
How the values were obtained:
[1] = system: 4T1; assay: Antiproliferative activity against mouse 4T1 cells expressing SiHK2 assessed as cell growth inhibition measured for 72 hrs by MTT assay; type: functional, cell-based
[2] = Toxicity in BALB/c mouse implanted with mouse 4T1 cells assessed as pathological changes in lung at 50 mg/kg, ip measured after 25 days in presence of cisplatin by Hematoxylin -eosin staining based analysis; type: organism-based; details: in vivo, 600 h, time 25 day
[3] = system: MDA-MB-231; assay: Induction of pyroptosis in human MDA-MB-231 cells assessed as increase in N-terminal GSDME level at 20 uM incubated for 36 hrs by Western blot analysis; type: functional, cell-based
[4] = system: 786-0; assay: Antiproliferative activity against human 786-0 cells assessed as cell growth inhibition measured for 72 hrs by MTT assay; type: functional, cell-based; details: 786-0, 72 h
[5] = system: 4T1; assay: Induction of mitochondrial damage in mouse 4T1 cells assessed as reduction in ATP level at 20 uM measured for 36 hrs; type: functional, cell-based
[6] = system: 4T1; assay: Antitumor immunity against mouse 4T1 cells implanted in BALB/c mouse model assessed as increase in CRT accumulation in tumor; type: functional, cell-based
[7] = system: 4T1; assay: Antitumor immunity against mouse 4T1 cells implanted in BALB/c mouse model assessed as increase in cleaved caspase-3 expression in tumor; type: functional, cell-based
[8] = system: 4T1; assay: Downregulation of PD-L1 expression in mouse 4T1 cells membrane at 20 uM measured for 36 hrs; type: functional, cell membranes
[9] = molecular target: T1, Hexokinase-2 (Homo sapiens) (UniProt P52789); assay: Induction of HK2 degradation in human MDA-MB-231 cells assessed as increase in VDAC expression at 20 uM measured for 36 hrs by Western blot analysis; type: cell-based
T1 sequence (whole entry): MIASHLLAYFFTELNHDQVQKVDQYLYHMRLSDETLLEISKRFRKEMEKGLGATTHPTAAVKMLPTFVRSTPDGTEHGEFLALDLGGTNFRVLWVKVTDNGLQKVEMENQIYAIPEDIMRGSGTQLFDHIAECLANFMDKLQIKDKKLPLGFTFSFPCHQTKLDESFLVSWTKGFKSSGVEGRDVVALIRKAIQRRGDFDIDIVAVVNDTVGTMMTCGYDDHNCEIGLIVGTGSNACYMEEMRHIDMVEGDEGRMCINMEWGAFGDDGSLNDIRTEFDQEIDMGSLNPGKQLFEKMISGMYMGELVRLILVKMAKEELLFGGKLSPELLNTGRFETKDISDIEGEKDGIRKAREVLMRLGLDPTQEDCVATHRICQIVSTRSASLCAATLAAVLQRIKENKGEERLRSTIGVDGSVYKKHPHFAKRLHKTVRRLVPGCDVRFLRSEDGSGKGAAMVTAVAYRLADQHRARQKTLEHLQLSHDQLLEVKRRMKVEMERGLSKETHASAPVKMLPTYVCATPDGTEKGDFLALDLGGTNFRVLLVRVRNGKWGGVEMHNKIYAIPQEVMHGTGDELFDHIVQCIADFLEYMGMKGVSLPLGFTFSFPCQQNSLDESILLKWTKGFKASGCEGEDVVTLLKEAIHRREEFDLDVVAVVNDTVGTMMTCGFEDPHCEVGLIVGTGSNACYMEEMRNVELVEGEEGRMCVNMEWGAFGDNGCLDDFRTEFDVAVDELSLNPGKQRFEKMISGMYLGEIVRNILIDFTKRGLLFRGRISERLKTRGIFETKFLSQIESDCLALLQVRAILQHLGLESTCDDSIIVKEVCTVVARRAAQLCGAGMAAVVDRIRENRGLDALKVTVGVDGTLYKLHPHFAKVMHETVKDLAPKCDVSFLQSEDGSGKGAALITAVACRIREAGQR

[10] = Toxicity in BALB/c mouse implanted with mouse 4T1 cells assessed as effect on mean corpuscular hemoglobin concentration at 50 mg/kg, ip measured after 25 days in presence of cisplatin by routine blood test; type: organism-based; details: in vivo, 600 h, time 25 day
[11] = molecular target: T1, Hexokinase-2 (Homo sapiens); assay: Induction of HK2 degradation in human MDA-MB-231 cells assessed as decrease in Bcl-2 expression at 20 uM measured for 36 hrs by Western blot analysis; type: cell-based
[12] = Toxicity in BALB/c mouse implanted with mouse 4T1 cells assessed as change in corpuscular hemoglobin concentration at 50 mg/kg, ip measured after 25 days by routine blood test; type: organism-based; details: in vivo, 600 h, time 25 day
[13] = Toxicity in BALB/c mouse implanted with mouse 4T1 cells assessed as effect on mean corpuscular hemoglobin at 50 mg/kg, ip measured after 25 days by routine blood test; type: organism-based; details: in vivo, 600 h, time 25 day
[14] = molecular target: T2, Hexokinase-2 (Homo sapiens, UniProt P52789); assay: (§1) Induction of HK2 degradation in human MDA-MB-231 cells measured for 36 hrs; type: cell-based
T2 sequence (P52789 whole entry): T1 sequence (whole entry)

[15] = molecular target: T1, Hexokinase-2 (Homo sapiens); assay: as §1; type: cell-based
[16] = system: MDA-MB-231; assay: Antitumor activity against human MDA-MB-231 cells xenografted in BALB/c nude mouse assessed as reduction in tumor growth at 50 mg/kg, ip measured after 28 days; type: functional, organism-based; details: time 28.0 day
[17] = molecular target: Protein cereblon/Hexokinase-2 (Homo sapiens) (UniProt P52789+Q96SW2); assay: PROTAC activity at CRBN/HK2 in human MDA-MB-231 cells assessed as […] ternary complex formation at 10 uM incubated for 24 hrs in presence of MG132; type: cell-based
[18] = system: 4T1; assay: Antitumor immunity activity against mouse 4T1 cells implanted in BALB/c mouse assessed as increase in proportion of […] positive T cells in tumor by flow cytometry analysis; type: functional, cell-based
[19] = Toxicity in BALB/c mouse implanted with mouse 4T1 cells assessed as pathological changes in heart at 50 mg/kg, ip measured after 25 days in presence of cisplatin by Hematoxylin -eosin staining based analysis; type: organism-based; details: in vivo, 600 h, time 25 day
[20] = system: 4T1; assay: Induction of pyroptosis in mouse 4T1 cells assessed as increase in full length GSDME level at 20 uM incubated for 36 hrs; type: functional, cell-based
[21] = Toxicity in BALB/c mouse implanted with mouse 4T1 cells assessed as effect on red blood cells at 50 mg/kg, ip measured after 25 days by routine blood test; type: organism-based; details: in vivo, 600 h, time 25 day
[22] = molecular target: T1, Hexokinase-2 (Homo sapiens); assay: Induction of HK2 degradation in human MDA-MB-231 cells upto 200 uM measured at 12 to 36 hrs; type: cell-based; details: time 12-36 hrs
[23] = system: 4T1; assay: Antitumor immunity against mouse 4T1 cells implanted in BALB/c mouse model assessed as upregulation of IFN-gamma expression in mouse tumor by ELISA analysis; type: functional, cell-based
[24] = system: PANC-1; assay: Antiproliferative activity against human PANC-1 cells assessed as cell growth inhibition measured for 72 hrs by MTT assay; type: functional, cell-based; details: PANC-1, 72 h
[25] = molecular target: T1, Hexokinase-2 (Homo sapiens); assay: Induction of HK2 degradation in human MDA-MB-231 cells at 20 uM measured for 36 hrs by Western blot analysis; type: cell-based
[26] = system: 4T1; assay: Induction of pyroptosis in mouse 4T1 cells assessed as viable cells at 20 uM incubated for 36 hrs by annexin V-FITC staining based flow cytometry analysis (reference value: 64 %); type: functional; details: read-out: Activity
[27] = system: 4T1; assay: Induction of pyroptosis in mouse 4T1 cells assessed as reduction in full length caspase-3 level at 20 uM incubated for 36 hrs; type: functional, cell-based
[28] = system: HUVEC-T1 cell; assay: Inhibition of colony formation in human HUVEC-T1 cell at 5 to 20 uM incubated for 48 hrs by giemsa staining based analysis; type: functional; details: dose 5-20 µM

Chain of Protein cereblon/Hexokinase-2 (Homo sapiens) (Q96SW2 whole entry, looked up, one chain of several): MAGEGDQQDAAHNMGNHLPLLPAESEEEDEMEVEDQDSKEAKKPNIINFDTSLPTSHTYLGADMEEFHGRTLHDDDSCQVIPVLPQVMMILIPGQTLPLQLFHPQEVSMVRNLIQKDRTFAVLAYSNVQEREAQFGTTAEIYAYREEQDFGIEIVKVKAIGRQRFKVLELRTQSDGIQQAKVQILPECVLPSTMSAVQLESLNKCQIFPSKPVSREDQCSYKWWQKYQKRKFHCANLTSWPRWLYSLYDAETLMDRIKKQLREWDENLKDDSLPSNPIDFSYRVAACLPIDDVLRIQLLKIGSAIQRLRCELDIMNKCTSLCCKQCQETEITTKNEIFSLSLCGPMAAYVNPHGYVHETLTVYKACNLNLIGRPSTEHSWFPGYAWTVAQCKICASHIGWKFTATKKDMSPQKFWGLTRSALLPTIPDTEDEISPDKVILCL

## O=C1CCC(N2C(=O)c3cccc(NCCCCNC(=O)c4nn(Cc5ccc(Cl)cc5Cl)c5ccccc45)c3C2=O)C(=O)N1 (stereo not drawn)
[1]
  Activity: inactive
[2]
  Activity: Non-Toxic
[3]
  Activity: Active
[4]
  IC50: 34.1 µM
[5]
  Activity: Active
[6]
  Activity: Active
[7]
  Activity: Active
[8]
  Activity: Active
[9]
  Activity: Active
[10]
  Activity: Non-Toxic
[11]
  Activity: Active
[12]
  Activity: Non-Toxic
[13]
  Activity: Non-Toxic
[14]
  DC50: 0.79 µM
[15]
  Activity: Dose-Dependent Effect
[16]
  Activity: Active
[17]
  Activity: inactive
[18]
  Activity: Active
[19]
  Activity: Non-Toxic
[20]
  Activity: Active
[21]
  Activity: Non-Toxic
[22]
  Activity: Active
[23]
  Activity: Active
[24]
  IC50: 31.5 µM
[25]
  Activity: Active
[26]
  viability at 20 µM: 37.7%
[27]
  Activity: Active
[28]
  inhibition: inactive
